Measurements as given in publication PMC9558510 (Cancers, 2022).

Key:
[1] = Observed steady-state serum concentrations (LC-MS/MS) in melanoma patients; assay type: in vivo, human; conditions: for effect of co-medication with at least one P-gp inducer on individual mean trough concentrations / serum Cmin mean / serum Cmin median: standard dose
Method: Serum samples were collected regularly during each routine outpatient visit from study enrollment until January 2022 or until treatment discontinuation. If possible, blood sampling was performed before the next drug administration, but any time interval between the last administration and blood withdrawal was accepted. The steady-state was assumed after continuous dosing for fourteen days for both compounds.
Hydroxy-dabrafenib concentrations were analyzed using a different previously published LC-MS/MS method with an LLOQ of 10 ng/mL [37]. […] Hydroxy-dabrafenib was not quantified in capillary blood samples as the methodology was not available at the time of analysis. All the methods have been validated according to the guidelines of the U.S. Food and Drug Administration and/or the European Medicines Agency.
Data were collected and processed using Microsoft Excel 2016 Version 16.0 (Microsoft Corporation, Redmond, WA, USA). Statistical calculations and visualization of results were performed with R Studio Version 1.2.5042 (RStudio Incorporation, Boston, MA, USA) running R version 4.0.5 (R Foundation for Statistical Computing, Vienna, Austria, 2020). For further analysis, serum concentrations were divided into groups according to time interval post-dose as follows: 0–5 h, 5–10 h, 10–14 h, and >14 h for (hydroxy-)dabrafenib and 0–10 h, 10–20 h, 20–30 h, and >30 h for trametinib. Concentrations < LLOQ were excluded from further statistical analyses. The concentrations of the same patient at the same dosage and within the same post-dose group were summarized into an individual mean serum concentration for descriptive statistical analysis to account for potential bias caused by the unbalanced number of samples per patient. […] The Wilcoxon […] test was used for unpaired samples. The correlations between individual PK parameters sampled from the conditional distribution during the generation of EBE (methods for estimation see below) and age, sex, body mass index (BMI), and co-medication were analyzed using analysis of variance (ANOVA) and Spearman’s correlation coefficient. Logistic regression was used to compare the risk of treatment discontinuations or dose reductions (dabrafenib dose reduction or discontinuation, trametinib dose reduction or discontinuation, or any dose reduction or discontinuation) with the corresponding predicted trough concentrations and area under the curve of a dosing interval (AUCτ) of dabrafenib, hydroxy-dabrafenib, and trametinib as well as with the composite predicted dabrafenib/hydroxy-dabrafenib trough concentration and with composite dabrafenib/hydroxy-dabrafenib AUCτ assuming standard dosing. The Hosmer–Lemeshow test was used to evaluate the goodness of fit for our logistic regression model. Due to the explorative nature of the study, p-values obtained from multiple comparisons were not corrected for multiple testing. A p-value < 0.05 was considered statistically significant.

[2] = design: method as in PMID 24408395; conditions: cited from earlier work
[3] = design: method as in PMID 33846903; conditions: cited from earlier work
[4] = serum, dabrafenib dose of 150 mg q12h

| effect of co-medication with at least one P-gp inducer on individual mean trough concentrations ([1]; serum) | serum Cmin mean ([1]; BMI (kg/m2) < 30) | serum Cmin median ([1]; BMI (kg/m2) < 30) | serum Cmin mean ([1]; BMI (kg/m2) >= 30) | serum Cmin median ([1]; BMI (kg/m2) >= 30) | serum Cmin mean ([1]; P-gp inducer: no) | serum Cmin median ([1]; P-gp inducer: no) | serum Cmin mean ([1]; P-gp inducer: yes) | serum Cmin median ([1]; P-gp inducer: yes) | serum Cmin mean ([1]; P-gp inhibitor: no) | serum Cmin median ([1]; P-gp inhibitor: no) | serum Cmin mean ([1]; P-gp inhibitor: yes) | serum Cmin median ([1]; P-gp inhibitor: yes) | serum Cmin mean ([1]; PPI: no) | serum Cmin median ([1]; PPI: no) | serum Cmin mean ([1]; PPI: yes) | serum Cmin median ([1]; PPI: yes) | serum Cmin mean ([1]; age above 65: no) | serum Cmin median ([1]; age above 65: no) | serum Cmin mean ([1]; age above 65: yes) | Compound | other results |
| --- | --- | --- | --- | --- | --- | --- | --- | --- | --- | --- | --- | --- | --- | --- | --- | --- | --- | --- | --- | --- | --- |
| no effect | 46.5 ng/mL | 42.9 ng/mL | 69.1 ng/mL | 54 ng/mL | 60.9 ng/mL | 48 ng/mL | 40.4 ng/mL | 41.8 ng/mL | 77.8 ng/mL | 52.9 ng/mL | 42.4 ng/mL | 41.8 ng/mL | 63.1 ng/mL | 51.6 ng/mL | 32.4 ng/mL | 32.4 ng/mL | 54.9 ng/mL | 43.5 ng/mL | 51.9 ng/mL | CC(C)(C)c1nc(-c2cccc(NS(=O)(=O)c3c(F)cccc3F)c2F)c(-c2ccnc(N)n2)s1 [dabrafenib] | median of individual mean trough concentration [1, 4]: 45.0 ng/mL; range of individual mean trough concentration [1, 4]: 20 to 155 ng/mL; serum Cmin median ([1]; age above 65: yes): 42.9 ng/mL; serum Cmin mean ([1]; moderate CYP2C8 inhibitor: no): 58.9 ng/mL; serum Cmin median ([1]; moderate CYP2C8 inhibitor: no): 44.3 ng/mL; serum Cmin mean ([1]; moderate CYP2C8 inhibitor: yes): 46.9 ng/mL; serum Cmin median ([1]; moderate CYP2C8 inhibitor: yes): 47.4 ng/mL; serum Cmin mean ([1]; sex female): 75.5 ng/mL; serum Cmin median ([1]; sex female): 52.9 ng/mL; serum Cmin mean ([1]; sex male): 36.5 ng/mL; serum Cmin median ([1]; sex male): 39.3 ng/mL; CYP3A autoinduction: induction half-life [2]: approximately 67 h; half-life [2]: eight; protein binding [3]: > 99.5% |
| significant decrease | 11.2 ng/mL | 11.4 ng/mL | 9.93 ng/mL | 9.79 ng/mL | 11.5 ng/mL | 11.7 ng/mL | 9.3 ng/mL | 9.68 ng/mL | 10.9 ng/mL | 11.3 ng/mL | 10.5 ng/mL | 10.9 ng/mL | 10.8 ng/mL | 11.5 ng/mL | 10.7 ng/mL | 10.9 ng/mL | 10.6 ng/mL | 11.3 ng/mL | 10.9 ng/mL | CC(=O)Nc1cccc(-n2c(=O)n(C3CC3)c(=O)c3c(Nc4ccc(I)cc4F)n(C)c(=O)c(C)c32)c1 [trametinib] | median of mean trough concentration ([1]; serum, 2 mg q24h): 11.2 ng/mL; range of mean trough concentration ([1]; serum, 2 mg q24h): 6.22 to 15.9 ng/mL; serum Cmin median ([1]; age above 65: yes): 10.9 ng/mL; serum Cmin mean ([1]; sex female): 11.1 ng/mL; serum Cmin median ([1]; sex female): 11.3 ng/mL; serum Cmin mean ([1]; sex male): 10.6 ng/mL; serum Cmin median ([1]; sex male): 11.2 ng/mL |
